Measured values: ChEMBL document CHEMBL1154023, “Carbonic anhydrase inhibitors. Inhibition of the beta-class enzyme from the pathogenic yeast Candida glabrata with anions” (Bioorg Med Chem Lett, 2009)

Target: T1, Carbonic anhydrase (Candida glabrata CBS 138, UniProt Q6FTL6)
T1 sequence (Q6FTL6 whole entry): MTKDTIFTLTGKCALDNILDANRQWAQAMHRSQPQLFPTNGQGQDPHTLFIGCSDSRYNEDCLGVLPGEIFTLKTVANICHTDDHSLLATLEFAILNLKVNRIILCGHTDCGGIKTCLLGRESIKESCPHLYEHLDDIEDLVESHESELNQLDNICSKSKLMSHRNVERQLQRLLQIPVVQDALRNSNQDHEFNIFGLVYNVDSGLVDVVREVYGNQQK
Test: Inhibition of Candida glabrata carbonic anhydrase by stopped flow CO2 hydration assay
Parameters: species or system Nakaseomyces glabratus

SMILES	Ki [µM]
OB(O)c1ccccc1 [PHENYLBORONIC ACID]	100
NS(=O)(=O)O [SODIUM SULFAMATE]	110
NS(N)(=O)=O [SULFAMIDE]	420
